Laboratory results reported in article PMC5190074, “BET inhibition as a new strategy for the treatment of gastric cancer” (Oncotarget, 2016).

Biological target: T1, BRD4(1), first bromodomain of BRD4 (Homo sapiens, UniProt O60885)
T1 construct: first bromodomain; BRD4_HUMAN O60884-1 fragment 44-168 (crystallography)
Assay: biochemical
Parameters: thermal shift assay, SAR of isoxazole compounds against BRD4(1)
Conditions: read-out: ΔTm Shift (oC)
Procedure: The recombinant bromodomains at 2 μM were mixed with 10 μM inhibitors. The assays and data evaluation for melting temperatures were performed using a Real-Time PCR Mx3005p machine (Stratagene) and the protocols previously described. Experiments profiling the final compound (PNZ5) were performed in quadruplicates. Isoxazoles have been explored previously as BET bromodomain inhibitors. We have developed PNZ5, a new isoxazole-based inhibitor originating from the lead compound S1 (Figure 1). PNZ5 was developed as the result of a structure-based lead optimisation program. Dihydroindene S1 was identified as a ligand against BRD4(1) (pIC50 5.9). Investigation of the co-crystal structure of S1 with BRD4(1) [PDB ID 4GPJ] identified a number of positions for potential optimisation: addition of a carbonyl group at C-3 was envisaged to benefit from hydrogen-bonds (H-bonds) to a network of conserved water molecules; replacement of C-2 with a nitrogen would minimise interactions in the narrow ZA channel of BRD4(1) and N-substitution could provide further binding interactions with the protein; and alternative substitution of the hydroxyl at C-1 would provide a handle for further optimisation. […] The three best compounds, S3, S5 and S7, were destined to be separated into their component enantiomers for further evaluation (Supplementary Table 2). […]

ΔTm at 10 µM: 10.1 °C
SMILES: Cc1noc(C)c1-c1ccc2c(c1)C(c1ccccc1)N(C)C2=O (racemic) [S3]
